Experimental data: PMC3929971 (Chemistry (Weinheim an der Bergstrasse, Germany), 2013)

Molecular target: T1, Mtb MraY (phospho-MurNAc-pentapeptide translocase, translocase I) (Mycobacterium tuberculosis, UniProt P9WMW7)
T1 sequence (P9WMW7 1-359): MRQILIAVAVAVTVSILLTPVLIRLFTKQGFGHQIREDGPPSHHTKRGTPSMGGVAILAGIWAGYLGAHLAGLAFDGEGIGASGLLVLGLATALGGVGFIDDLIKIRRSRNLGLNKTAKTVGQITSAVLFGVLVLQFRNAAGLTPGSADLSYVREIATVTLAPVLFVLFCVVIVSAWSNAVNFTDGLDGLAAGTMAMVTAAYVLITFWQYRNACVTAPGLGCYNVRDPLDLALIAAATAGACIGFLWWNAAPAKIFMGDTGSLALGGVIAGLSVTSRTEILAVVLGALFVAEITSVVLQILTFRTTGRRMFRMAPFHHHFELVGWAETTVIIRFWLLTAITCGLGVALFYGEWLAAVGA
Experiment: MraY enzyme inhibition
Format: biochemical

Compound: CO[C@H]1[C@@H](O)[C@H](n2ccc(=O)[nH]c2=O)O[C@@H]1[C@@H](O[C@H]1OC(C(=O)N[C@H]2CCCCNC2=O)=C[C@H](O)[C@@H]1O)C(N)=O [compound 1, Capuramycin]
- IC50: 18 nM
